Source: the supplement of paper PMC4862054

How the values were obtained:
Details in all cases: incubation time: 72 h
BT-474 [1] = experiment: normalised response (% of control), CellTiter-Glo; higher = more viable cells (100 = DMSO, 0 = benzethonium chloride kill control)
Protocol: (§1)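 DSRT, 72 h incubation, CellTox Green / CellTiter-Glo readout. Signal is normalised to DMSO and benzethonium chloride controls. Value is the normalised response at the highest dose.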

Hs578T [2] = experiment: as above
Protocol: as §1

CAL-120 [3] = experiment: as above
Protocol: as §1

MDA-MB-468 [4] = experiment: as above
Protocol: as §1

HDQ-P1 [5] = experiment: as above
Protocol: as §1

CAL-85-1 [6] = experiment: as above
Protocol: as §1

HCC1937 [7] = experiment: as above
Protocol: as §1

DU-4475 [8] = experiment: as above
Protocol: as §1

MDA-MB-453 [9] = experiment: as above
Protocol: as §1

HCC1143 [10] = experiment: as above
Protocol: as §1

SK-BR-3 = experiment: as above
Protocol: as §1

MFM-223 [11] = experiment: as above
Protocol: as §1

MDA-MB-436 [12] = experiment: as above
Protocol: as §1

CAL-51 [13] = experiment: as above
Protocol: as §1

BT-549 [14] = experiment: as above
Protocol: as §1

CAL-148 [15] = experiment: as above
Protocol: as §1

MCF-10A [16] = experiment: as above
Protocol: as §1

HCC1599 [17] = experiment: as above
Protocol: as §1

MDA-MB-231 [18] = experiment: as above
Protocol: as §1

BT-474 [19] = experiment: normalised response (% of control), CellTox Green; higher = less cell death (100 = DMSO, 0 = benzethonium chloride kill control)
Method in brief: (§2)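 Breast cancer cell lines (20 µl suspension) were seeded into 384-well plates holding compound at 5 concentrations in 10-fold steps over a compound-specific 10,000-fold range, then incubated 72 h. CellTox Green fluorescence (485/520 nm) was read first, then CellTiter-Glo luminescence after 10 min at room temperature. Each plate was normalised to 0.1 % DMSO (100) and a positive kill control (0). Each value is the normalised signal at a single concentration of the series.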

Hs578T [20] = experiment: as above
Method in brief: as §2

CAL-120 [21] = experiment: as above
Method in brief: as §2

MDA-MB-468 [22] = experiment: as above
Method in brief: as §2

HDQ-P1 [23] = experiment: as above
Method in brief: as §2

CAL-85-1 [24] = experiment: as above
Method in brief: as §2

HCC1937 [25] = experiment: as above
Method in brief: as §2

DU-4475 [26] = experiment: as above
Method in brief: as §2

MDA-MB-453 [27] = experiment: as above
Method in brief: as §2

HCC1143 [28] = experiment: as above
Method in brief: as §2

MFM-223 [29] = experiment: as above
Method in brief: as §2

MDA-MB-436 [30] = experiment: as above
Method in brief: as §2

CAL-51 [31] = experiment: as above
Method in brief: as §2

BT-549 [32] = experiment: as above
Method in brief: as §2

CAL-148 [33] = experiment: as above
Method in brief: as §2

MCF-10A [34] = experiment: as above
Method in brief: as §2

HCC1599 [35] = experiment: as above
Method in brief: as §2

MDA-MB-231 [36] = experiment: as above
Method in brief: as §2

SMILES | normalised response (BT-474 [1]) [%] | normalised response (Hs578T [2]) [%] | normalised response (CAL-120 [3]) [%] | normalised response (MDA-MB-468 [4]) [%] | normalised response (HDQ-P1 [5]) [%] | normalised response (CAL-85-1 [6]) [%] | normalised response (HCC1937 [7]) [%] | normalised response (DU-4475 [8]) [%] | normalised response (MDA-MB-453 [9]) [%] | normalised response (HCC1143 [10]) [%] | normalised response (SK-BR-3) [%] | normalised response (MFM-223 [11]) [%] | normalised response (MDA-MB-436 [12]) [%] | normalised response (CAL-51 [13]) [%] | normalised response (BT-549 [14]) [%] | normalised response (CAL-148 [15]) [%] | normalised response (MCF-10A [16]) [%] | normalised response (HCC1599 [17]) [%] | normalised response (MDA-MB-231 [18]) [%] | normalised response (BT-474 [19]) [%] | normalised response (Hs578T [20]) [%] | normalised response (CAL-120 [21]) [%] | normalised response (MDA-MB-468 [22]) [%] | normalised response (HDQ-P1 [23]) [%] | normalised response (CAL-85-1 [24]) [%] | normalised response (HCC1937 [25]) [%] | normalised response (DU-4475 [26]) [%] | normalised response (MDA-MB-453 [27]) [%] | normalised response (HCC1143 [28]) [%] | normalised response (MFM-223 [29]) [%] | normalised response (MDA-MB-436 [30]) [%] | normalised response (CAL-51 [31]) [%] | normalised response (BT-549 [32]) [%] | normalised response (CAL-148 [33]) [%] | normalised response (MCF-10A [34]) [%] | normalised response (HCC1599 [35]) [%] | normalised response (MDA-MB-231 [36]) [%]
Nc1ncn([C@H]2C[C@H](O)[C@@H](CO)O2)c(=O)n1 [Decitabine] (10000 nM) | 87.4 | 89.4 | 83.9 | 31.5 | 87.8 | 84.5 | 74.9 | 86.2 | 97.7 | 83.6 | 77.7 | 93.3 | 88.7 | 82.3 | 75.2 | 82.6 | 83.8 | 94.1 | 93 | 94 | 123 | 103 | 90 | 110 | 70 | 113 | 104 | 103 | 117 | 90.5 | 73.2 | 65.7 | 130 | 95.5 | 92.6 | 113 | 126
Nc1ccccc1NC(=O)c1ccc(CNC(=O)OCc2cccnc2)cc1 [Entinostat] (10000 nM) | 42 | 48.3 | 73.2 | 19.1 | 73.2 | 41.7 | 67.4 | 5.86 | 21.6 | 19 | 14.2 | 18 | 71.6 | 31.8 | 31.6 | 29.8 | 82.9 | 32.3 | 39.1 | 54.9 | 110 | 88.6 | -141 | 102 | 8.15 | 43.6 | 73.1 | 90.6 | 104 | 74.4 | 38.9 | 29 | 69.9 | 46.4 | 90.9 | 75.2 | 29.8
CC[C@H](Nc1ncnc2[nH]cnc12)c1nc2cccc(F)c2c(=O)n1-c1ccccc1 [GS-1101] (10000 nM) | 71.4 | 76.5 | 77.8 | 64.7 | 71.7 | 93.1 | 78.7 | 96.3 | 61.8 | 81.3 | 62.9 | 77 | 59.8 | 120 | 69.6 | 86 | 63 | 107 | 73.6 | 97.9 | 109 | 98.2 | 59.5 | 61.4 | 96.4 | 94.4 | 95.5 | 73.4 | 99.5 | 95.4 | 111 | 107 | 114 | 79.9 | 102 | 93.5 | 86.4
C=CC(=O)N1CCC[C@@H](n2nc(-c3ccc(Oc4ccccc4)cc3)c3c(N)ncnc32)C1 [Ibrutinib] (1000 nM) | 106 | 106 | 100 | 80.7 | 68.3 | 50.2 | 94.9 | 118 | 73.6 | 102 | 24.5 | 88.4 | 109 | 85.7 | 110 | 101 | 42.5 | 111 | 105 | 83.8 | 92 | 102 | 75.1 | 74.8 | 26.8 | 94.5 | 97.2 | 46.3 | 111 | 100 | 93 | 87.5 | 92.3 | 86.6 | 76.5 | 106 | 115
O=C(Cc1ccc(-c2ccc(OCCN3CCOCC3)cc2)cn1)NCc1ccccc1 [KX2-391] (10000 nM) | 52 | 18.4 | 60.8 | 28 | 73.8 | 56.5 | 69.1 | 58.9 | 61.2 | 56.3 | 19.9 | 34.5 | 26.2 | 25.6 | 45.8 | 54.9 | 77 | 9.36 | 46.6 | 79.9 | 26.2 | 84 | 45.4 | 8.87 | 45.3 | 12.5 | 97.6 | 99.2 | 110 | 28 | 51 | 48.7 | 64.9 | 84.2 | 50.1 | 67.6 | 50.1
